# Patent US5700640A, “Inducers of gamma globin gene expression and screening assays therefor” (priority 1994, dated 1997)
# What was measured:
# [1] = test system: GATA-1 mRNA; assay: Northern hybridization of GATA-1 mRNA in treated K562 cells; format: cell-based, human
# Method: (§1) Total RNA was prepared by the method of McDonald as described in Sambrook et al., (1989) Molecular Cloning: A Laboratory Manual, 2nd Edition, Cold Spring Harbor Laboratory Press. 10 μg total cellular RNA was electrophoresed through agarose gels containing 3.3% formaldehyde. The electrophoresed RNA was then transferred to nitrocellulose filters by standard methods. Each sample was hybridized to specific probes for gamma globin mRNA, mRNA encoding the erythroid specific transcription factor GATA-1 and 28S ribosomal RNA (which was used for standardization). The gamma globin and GATA-1 probes were cDNA probes, which were labeled with ^32 p by random priming reactions (Promega Biotech Inc.). The 28S ribosomal RNA probe was an oligonucleotide having the sequence 5' […] 3' (SEQ ID NO: 3), which was labeled by 5' end labeling using T4 polynucleotide kinase (New England Biolabs). Nucleotide probes were hybridized to the RNA nitrocellulose filters according to standard techniques. After hybridization, radioactive signals on the nitrocellulose filters were directly quantified using a BioRad GS-250 Molecular Imager. mRNA hybridization intensities were normalized to the amount of 28S ribosomal RNA present for each sample.
# [2] = test system: gamma globin mRNA; assay: Northern hybridization of gamma globin mRNA in treated K562 cells; format: cell-based, human
# Method: as §1
# [3] = test system: gamma globin-luciferase reporter constructs in K562 cells; assay: BA inducibility of different gamma globin-reporter gene constructs in transiently transfected K562 cells; format: cell-based, human
# Excerpt: The entire human globin gene locus, spanning approximately 150 kilobases, is shown schematically in FIG. 1. Depicted are the different globin structural genes and cis-active regulatory elements (e.g., promoters and enhancers). To construct gamma globin reporter gene plasmids, nucleic acid fragments comprising nucleotide sequences normally flanking (i.e., at either the 5' or 3' end of) the gamma globin gene were obtained and subcloned into a plasmid encoding a reporter gene. The human gamma globin 5' promoter fragment consisted of nucleotides -1200 to +30, relative to the start site of transcription (nucleotide numbers 38205 to 39435 of the human gamma globin gene in the GENEMBL database, accession number J00179). The promoter fragment was obtained from human genomic DNA by polymerase chain reaction (PCR) amplification using oligonucleotide primers of the sequences: […]
# These constructs are illustrated schematically in FIG. 2.
# In a first series of experiments, K562 cells transiently transfected with the different gamma globin-reporter genes described in Example 1 were treated with butyric acid (BA). After treatment, the level of reporter gene activity (i.e., luciferase activity) in the treated cells was compared to determine the BA-inducibility of the different reporter gene constructs. The results are shown graphically in FIG. 2, which illustrates the fold induction of luciferase activity by BA relative to untreated cells. […] All other constructs tested (including gammaSV40, beta3'PE, HS2/3gamma3'PE and gamma) were at least 2 fold less responsive to BA treatment.
# To test whether the increased sensitivity of the gamma globin promoter to BA was due to a specific property of the globin 3' Proximal Enhancer or if this was a property of transcriptional enhancers in general, two copies of the 72 bp repeat of the SV40 enhancer (isolated by PCR from the simian virus 40 genome) were substituted for the 3' Proximal Enhancer in the context of the gamma globin promoter (construct gammaSV40). […] This may be due to the unnatural proximity of these enhancer sequences to the gamma globin promoter in this construct. Normally, these sequence reside over 30 kB upstream of the promoter and one function of BA in vivo may be to promote interaction between the chromosomal LCR sequences and the gamma globin promoter. Artificially positioning the LCR components near the gamma globin promoter may have in fact complemented the effect of BA. Thus, empirically, it appears that maintaining the cis-active elements of the gamma globin locus in their natural context is important for developing the most sensitive reporter gene assay system for detecting gone induction by short chain fatty acids such as BA.
# [4] = test system: gamma globin promoter deletion-luciferase constructs in K562 cells; assay: BA inducibility of gamma globin promoter deletion constructs; format: cell-based, human; conditions: 5 mM BA, 24 hours
# Excerpt: Luciferase reporter gene constructs containing serial deletions in the 5' end of the gamma globin promoter were made by cloning truncated promoter DNA fragments upstream (i.e., 5') of the luciferase gene in pGL2. The gamma globin 3' Proximal Enhancer element (3'PE) was cloned downstream (i.e., 3') of the luciferase reporter gene in these constructs. Truncated gamma globin promoter DNA fragments were generated by PCR using as the upstream primer oligonucleotides having the sequences:
# To create a construct with 5' terminus at position -140, the -577 reporter gene construct was digested with NcoI and KpnI, the fragment containing the deleted promoter and reporter gene (i.e., the large restriction fragment) was treated with T4 DNA polymerase to fill-in the restriction sites and the fragment was treated with T4 DNA ligase to religate the construct.
# To determine the inducibility of each deletion construct by butyric acid, the constructs were introduced into K562 cells by electropotation as described above. Forty-eight hours after transfection, the cells were treated with 5 mMBA. Luciferase activity was measured 24 hours later. The inducibility of the deletion constructs is illustrated in FIGS. 16 and 17.
# [5] = Blau et al. 1993; cited from earlier work
# [6] = normalized to 28S ribosomal RNA, K562 cells, 5 mM, 96 hours
smiles,measurement,setting,value
"CCCC(=O)O [BA, butyric acid]",fold induction at 5000 µM,"[1]; Homo sapiens, K562, 96 h, read-out: Fold Induction, GATA-1 RNA",1
same,"Raw Value, GATA-1 RNA","[1]; K562 cells, 5 mM, 96 hours",2.23 × 10^5
same,"Normalized Value, GATA-1 RNA",[1]; [6],5.8 × 10^4
same,fold induction at 5000 µM,"[2]; Homo sapiens, K562, 96 h, read-out: Fold Induction, gamma globin RNA",1.3
same,"Raw Value, gamma globin RNA","[2]; K562 cells, 5 mM, 96 hours",3.58 × 10^6
same,"Normalized Value, gamma globin RNA",[2]; [6],9.4 × 10^5
same,effect of LCR sequences on BA sensitivity of gamma3'PE construct,[3]; HS2/3gamma3'PE vs gamma3'PE,reduce the sensitivity of the gamma3'PE construct to BA
same,BA induction of beta3'PE construct,[3]; beta globin promoter with 3'Proximal Enhancer,not inducible
same,BA responsiveness of gamma3'PE construct,"[3]; gamma3'PE, fold induction relative to untreated cells",most responsive to BA
same,BA induction of gamma construct,[3]; gamma globin promoter without 3' Proximal Enhancer,"inducible, albeit to a lesser extent than when in the context of the 3' Proximal Enhancer"
same,SV40 enhancer effect on BA responsiveness of gamma globin promoter,[3]; gammaSV40,not effective in augmenting the responsiveness of the gamma globin promoter to BA
same,fold lower BA responsiveness of other constructs than gamma3'PE,"[3]; gammaSV40, beta3'PE, HS2/3gamma3'PE and gamma, transient transfection",at least 2 fold
same,BA induction of promoterless constructs,[3]; luciferase gene only or fused to 3'Proximal Enhancer,not induced by BA
same,BA inducibility on promoter deletion to -108,[4],markedly reduced the BA inducibility of the construct
same,BA responsiveness on promoter deletion from -1260 to -140,[4],did not significantly alter the responsiveness of the reporter construct to BA
same,toxicity of high dosages,[5],"associated with toxicity, in particular neurologic toxicity"
